According to US20220257636A1, “REDUCTION OF BONE RESORPTION, ESPECIALLY IN CHRONIC JOINT DISEASES” (TECHNISCHE UNIVERSITÄT DARMSTADT, priority 2019, published 2022):
Entries after “also recorded” stand apart in the source; their conditions may differ. {Cy5} = Cyanine5 fluorescent label

Experiments:
CD14+ monocytes [1] = experiment: Cytokine mRNA levels by RT-qPCR after stimulation of CD14+ monocytes; assay type: cell-based, human
Description: CD14^+ monocytes were stimulated with sEVs from the synovial fluid of ACPA positive patients with rheumatoid arthritis (4 μg/ml), with miR-574-5p oe sEVs (1 μg/ml) or with ScrC sEVs (1 μg/ml) for 4 hours each. Then the whole RNA was isolated and the mRNA levels of IL-23, IL-8, INFα, IL-1β and TNFα were analyzed with RT-qPCR. These cytokines are known for their influence onto the differentiation of osteoclasts (Amara-sekara D. S., Yun Ii., Kim S., Lee N. and Rho J. (2018). “Regulation of Osteoclast Differentiation by Cytokine Networks.” Immune Netw 18: • 1-18). The sequences of the primer pairs used are shown in the sequence protocol (SEQ ID NOs: 6-7 for INFα, SEQ ID NOs: 8-9 for IL-23, SEQ ID NOs: 10-11 for TNFα, SEQ ID NOs: 12-13 for IL-1β and SEQ ID NOs: 14-15 for IL-8). For the normalization of the cDNA amounts in different samples the levels of β-actin were used (primer pair: SEQ ID NOs: 16-17).

pre-osteoclasts = experiment: Induction of osteoclast genesis, substances added to pre-osteoclasts; assay type: cell-based, human; conditions: TLR7/8 agonist added to pre-osteoclasts
Description: (§1) After 9 to 12 days the cells were fixed and tested for the osteoclast marker TRAP (tartrate-resistant acid phosphatase). TRAP positive cells which also comprised at least three nuclei were classified as osteoclasts and counted with the light microscope.
(§2) Isolated human CD14^+ monocytes were treated with 1 μg/ml miR-574-5p oe sEVs or ScrC sEVs at different time points of the differentiation (FIG. 8A, 8B, 8C).

[2] = tested on: freshly isolated human monocytes
Description: The cytotoxicity was tested with an MTT assay in which the eponymous dye MTT (3-(4,5-dimethylthiazol-2-yl)-2,5-diphenyltetrazoliumbromide) is used. As negative control a PNA with a sequence which was not complementary to miR-574-5p and which was also bound to CPP by means of the PEG linker was tested (SEQ ID NO: 30). The CPP-PNA construct of the negative control used can be illustrated as follows (from the N-terminus to the C-terminus): [sequence]-(eg1)-[sequence](K—NH2). The negative control differs from the above-described construct according to the present invention only with respect to the PNA sequence.
The cytotoxicity was tested on freshly isolated human monocytes.

CD14+ monocytes [3] = experiment: Induction of osteoclast genesis (count of TRAP positive multinuclear cells), substances added to CD14+ monocytes; assay type: cell-based, human
Description: (§3) CD14^+ monocytes were isolated from PMBCs (peripheral blood mononuclear cells) of healthy donors and stimulated with M-CSF (recombinant human macrophage colony-stimulating factor), RANK-L (receptor activator of NF-κB ligand) and different concentrations of the isolated sEVs. With the sEVs isolated from the synovial fluid both freshly isolated monocytes and differentiated M2-like macrophages were stimulated (FIG. 2).
as §1, §2
The influence of the miR-574-5p PNA AntagomiR which was coupled to CPP onto the osteoclast genesis was tested. This scheme has been adapted such that on day 1 the CPP-coupled miR-574-5p PNA AntagomiR (CPP-PNA) was added in concentrations of 10 μM or 20 μM. The negative control was conducted without any addition of CPP-PNA (0 μm CPP-PNA). […] Also for this experiment freshly isolated human monocytes were used. After the completion of the differentiation matured osteoclasts were visualized with the help of histologic staining (detection of tartrate-resistant acid phosphatases, TRAP). Subsequently, multinuclear TRAP positive cells are quantified under a light microscope.

M2-like macrophages = experiment: Induction of osteoclast genesis (count of TRAP positive multinuclear cells), substances added to M2-like macrophages; assay type: cell-based, human; conditions: added with miR-574-5p to M2-like macrophages (FIG. 10D)
Description: as §3, §1, §2

TLR8 = target: T1, TLR8 (Homo sapiens, UniProt Q9NR97); experiment: MST (microscale thermophoresis) direct interaction with TLR8; assay type: binding; conditions: Cy5-labeled miR
T1 sequence (Q9NR97 27-1041): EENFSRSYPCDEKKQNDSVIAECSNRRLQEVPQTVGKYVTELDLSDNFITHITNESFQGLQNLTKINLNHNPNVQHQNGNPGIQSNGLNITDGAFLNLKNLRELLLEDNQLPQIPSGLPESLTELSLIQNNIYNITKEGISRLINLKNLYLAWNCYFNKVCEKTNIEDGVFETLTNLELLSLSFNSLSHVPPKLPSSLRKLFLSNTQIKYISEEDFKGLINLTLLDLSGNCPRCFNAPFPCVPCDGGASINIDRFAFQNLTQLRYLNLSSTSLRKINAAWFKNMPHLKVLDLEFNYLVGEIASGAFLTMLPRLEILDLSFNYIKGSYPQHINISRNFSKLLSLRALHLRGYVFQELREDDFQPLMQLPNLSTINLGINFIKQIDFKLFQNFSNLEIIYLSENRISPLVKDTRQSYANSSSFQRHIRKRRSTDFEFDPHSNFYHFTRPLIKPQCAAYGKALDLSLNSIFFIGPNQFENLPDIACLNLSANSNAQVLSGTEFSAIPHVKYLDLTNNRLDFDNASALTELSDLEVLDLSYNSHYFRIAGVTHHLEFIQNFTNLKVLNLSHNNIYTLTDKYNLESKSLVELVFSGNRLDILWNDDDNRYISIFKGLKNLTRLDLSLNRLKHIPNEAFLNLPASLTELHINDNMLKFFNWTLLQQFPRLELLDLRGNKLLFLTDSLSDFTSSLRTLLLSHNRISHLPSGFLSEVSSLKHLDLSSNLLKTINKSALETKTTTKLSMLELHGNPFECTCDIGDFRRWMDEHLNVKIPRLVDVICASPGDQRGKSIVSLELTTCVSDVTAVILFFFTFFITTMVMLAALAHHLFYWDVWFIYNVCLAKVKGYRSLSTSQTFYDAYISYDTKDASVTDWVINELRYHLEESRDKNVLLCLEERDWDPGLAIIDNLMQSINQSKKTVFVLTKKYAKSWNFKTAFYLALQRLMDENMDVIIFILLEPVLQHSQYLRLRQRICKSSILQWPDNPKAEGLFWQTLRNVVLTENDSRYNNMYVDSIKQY
Description: In the context of the present invention, a direct interaction of miR-574-5p with TLR8 was detected by means of MST (microscale thermophoresis); (Wienken C. J., Baaske P., Rothbauer U., Braun D. and Duhr S. (2010). “Protein-binding assays in biological liquids using microscale thermophoresis.” Nat Commun 1: 100). […] For the MST experiments Cy5-labeled miR-574-5p (SEQ ID NO: 18) and Cy5-labeled miR-16-5p (SEQ ID NO: 19) were used.

[4] = 10 ng/ml, compared with miR-574-5p oe sEVs (FIGS. 11E and 11F)

Compound: CCOCc1nc2c(N)nc3ccccc3c2n1CC(C)(C)O [R848]
- IL-23 mRNA (CD14+ monocytes [1]; [4]): Comparable results
- INFα mRNA (CD14+ monocytes [1]; [4]): Comparable results
- osteoclast genesis (pre-osteoclasts): no significant increase

Compound: GRKKRWFRRRRMKWKK-(eg1)-ctcacacacacacactca(K—CONH2) (PEG linker, C-terminal amide; Cell Penetrating Peptide (CPP); Peptide Nucleic Acid (PNA) AntagomiR) [CPP-coupled miR-574-5p PNA AntagomiR]
- cytotoxicity (MTT, viability) [2]: Neither in the case of the negative control (FIG. 13A) nor in the case of miR-574-5p PNA AntagomiR (FIG. 13B) a significant toxicity was observed
- viability in comparison to the untreated control [2]: increased viability
- osteoclast genesis (CD14+ monocytes [3]; added on day 1 at 10 μM or 20 μM, versus 0 μM, TRAP positive multinuclear cells): concentration-dependent reduction

Compound: GRKKRWFRRRRMKWKK-(eg1)-gctattaccttaacccag(K—NH2) (GCTATTACCTTAACCCAG; all peptide nucleic acid (PNA); N-terminal cell-penetrating peptide via eg1 linker, C-terminal lysine amide, further chemistry not fully specified) [negative control]
- cytotoxicity (MTT, viability) [2]: Neither in the case of the negative control (FIG. 13A) nor in the case of miR-574-5p PNA AntagomiR (FIG. 13B) a significant toxicity was observed

Compound: ODN 2087: TLR7/8 inhibitor oligonucleotide, SEQ ID NO: 24, MiltenyiBiotec (TCCTGAGCTTGAAGT; DNA, all phosphorothioate, methylation of C not given here)
- effect of inhibitor on the induced INFα and IL-23 mRNA increases (CD14+ monocytes [1]; added to the stimulation with sEVs or R848): nullify the observed effects
- effect of inhibitor on the miR-574-5p induced increase of the number of osteoclasts (M2-like macrophages): nullifies the effect
- effect of inhibitor on the R848 effect on the number of osteoclasts (CD14+ monocytes [3]; added with R848 (FIGS. 10E and 10F)): nullify the effect
- effect of inhibitor on the miR-574-5p induced increase of the number of osteoclasts (CD14+ monocytes [3]; added with miR-574-5p to CD14+ monocytes (FIG. 10C)): nullifies the effect

Compound: miR-16-5p: microRNA; Cy5-labeled form (SEQ ID NO: 19) used for MST (UAGCAGCACGUAAAUAUUGGCG; RNA, 3' {Cy5}, backbone not given here)
- specific interaction with TLR8 (TLR8): specific interaction between TLR8 and miR-16-5p was not shown; also recorded: specific interaction between TLR8 and miR-16-5p was not observed

Compound: miR-574-5p: microRNA, SEQ ID NO: 4; Cy5-labeled form (SEQ ID NO: 18) used for MST (UGAGUGUGUGUGUGUGAGUGUGU; Cy5-labeled form used for MST, label position not given here; listed as Homo sapiens)
- IL-1β mRNA level (CD14+ monocytes [1]; any of the conditions tested): not influenced
- IL-8 mRNA level (CD14+ monocytes [1]; any of the conditions tested): not influenced
- TNFα mRNA level (CD14+ monocytes [1]; any of the conditions tested): not influenced
- Kd (TLR8; read-out: constant of dissociation KD): 30.8 ± 5.2 nM
- stimulation of the osteoclast genesis (CD14+ monocytes [3]; miR-574-5p alone, not in sEVs (FIG. 9)): Neither miR-574-5p alone, nor miR-574-5p in the presence of synthetic liposomal vehicles (Lipofectamine® 2000 (Thermo Fisher Scientific, Waltham, USA)) results in a stimulation
- stimulation of the osteoclast genesis (CD14+ monocytes [3]; miR-574-5p in the presence of synthetic liposomal vehicles (Lipofectamine 2000) (FIG. 9)): Neither miR-574-5p alone, nor miR-574-5p in the presence of synthetic liposomal vehicles (Lipofectamine® 2000 (Thermo Fisher Scientific, Waltham, USA)) results in a stimulation
